Measured values reported in patent publication US20070207175A1, “Biaromatic compound activators of PPARgamma receptors and cosmetic/pharmaceutical compositions comprised thereof” (GALDERMA RESEARCH & DEVELOPMENT, priority 2004, published 2007).

Columns and labels:
Type in all cases: cell-based
PPARγ = target: T1, PPARγ (Homo sapiens, UniProt P37231); assay: Crossed-curve PPAR transactivation assay (PPARγ); settings: HeLN cells stably transfected with Gal-hPPARγ and luciferase reporter; Schild regression against reference agonist; n.a. means not active; read-out: PPARγ Kdapp
T1 sequence (P37231 238-505 limits assumed): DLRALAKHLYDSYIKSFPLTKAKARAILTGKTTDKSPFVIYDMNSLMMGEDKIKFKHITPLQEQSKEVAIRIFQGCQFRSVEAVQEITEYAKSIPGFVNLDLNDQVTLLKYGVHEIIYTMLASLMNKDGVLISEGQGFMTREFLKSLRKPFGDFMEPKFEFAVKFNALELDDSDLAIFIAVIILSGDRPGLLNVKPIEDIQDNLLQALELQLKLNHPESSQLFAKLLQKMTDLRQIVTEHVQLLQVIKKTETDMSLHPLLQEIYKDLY
Procedure: (§1) Activation of the PPAR receptors by an agonist (activator) in HeLN cells leads to the expression of a reporter gene, luciferase, which, in the presence of a substrate, generates light. The modulation of the PPAR receptors is measured by quantifying the luminescence produced after incubation of the cells in the presence of a reference agonist. The ligands will displace the agonist from its site. The measurement of the activity is performed by quantifying the light produced. This measurement makes it possible to determine the modulatory activity of the compounds according to the invention by the determination of the constant which is the affinity of the molecule for the PPAR receptor. Since this value can fluctuate depending on the basal activity and the expression of the receptor, it is referred to as apparent Kd (Kdapp in nM).
(§2) To determine this constant, “crossed curves” for the test product, against a reference agonist, are prepared using a 96-well plate: 10 concentrations of the test product plus a concentration 0 are arranged in a line, and 7 concentrations of the agonist plus a concentration 0 are arranged in a column. This is 88 measurement points for 1 product and 1 receptor. The remaining 8 wells are used for repeatability controls.
(§3) Measurements are also taken for total agonist controls with the same products.
(§4) The HeLN cell lines used are stable transfectants containing the plasmids ERE-βGlob-Luc-SV-Neo (reporter gene) and PPAR (α, δ, γ) Gal-hPPAR. These cells are seeded in 96-well plates at the rate of 10,000 cells per well in 100 μl of DMEM medium without phenol red and supplemented with 10% of defatted calf serum. The plates are then incubated for 16 hours at 37° C. and 7% CO2.
(§5) The various dilutions of the test products and of the reference ligand are added at the rate of 5 μl per well. The plates are subsequently incubated for 18 hours at 37° C. and 7% CO2. The culture medium is removed by turning over and 100 μl of a 1:1 PBS/luciferin mixture are added to each well. After 5 minutes, the plates are read using the luminescence reader.

PPARα = target: T2, PPARα (Homo sapiens, UniProt Q07869); assay: Crossed-curve PPAR transactivation assay (PPARα); settings: HeLN cells stably transfected with Gal-hPPARα and luciferase reporter; Schild regression against reference agonist; n.a. means not active; read-out: PPARα Kdapp
T2 sequence (Q07869 200-468 limits assumed): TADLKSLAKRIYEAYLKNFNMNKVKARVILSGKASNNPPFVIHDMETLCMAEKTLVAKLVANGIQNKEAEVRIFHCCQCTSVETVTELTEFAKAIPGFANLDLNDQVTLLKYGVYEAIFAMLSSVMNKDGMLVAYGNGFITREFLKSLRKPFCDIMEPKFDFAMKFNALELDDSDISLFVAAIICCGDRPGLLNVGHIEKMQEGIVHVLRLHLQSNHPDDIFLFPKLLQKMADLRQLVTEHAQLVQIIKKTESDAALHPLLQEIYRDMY
Procedure: as §1
To determine this constant, “crossed curves” for the test product, against a reference agonist, are prepared using a 96-well plate: 10 concentrations of the test product plus a concentration 0 are arranged in a line, and 7 concentrations of the agonist plus a concentration 0 are arranged in a column. This is 88 measurement points for 1 product and 1 receptor. […]
The various dilutions of the test products and of the reference ligand are added at the rate of 5 μl per well. […] After 5 minutes, the plates are read using the luminescence reader.

PPARδ = target: T3, PPARδ (Homo sapiens, UniProt Q03181); assay: Crossed-curve PPAR transactivation assay (PPARδ); settings: HeLN cells stably transfected with Gal-hPPARδ and luciferase reporter; Schild regression against reference agonist; n.a. means not active; read-out: PPARδ Kdapp
T3 sequence (Q03181 211-441 limits assumed): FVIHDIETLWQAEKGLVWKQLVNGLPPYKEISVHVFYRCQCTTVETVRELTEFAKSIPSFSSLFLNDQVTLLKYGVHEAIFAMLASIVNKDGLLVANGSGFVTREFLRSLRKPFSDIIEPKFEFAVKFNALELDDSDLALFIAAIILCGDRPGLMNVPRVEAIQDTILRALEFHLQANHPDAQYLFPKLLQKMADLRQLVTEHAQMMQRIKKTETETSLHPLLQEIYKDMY
Procedure: as §1, §2, §3, §4, §5

SMILES | Kd (PPARγ) [nM] | Kd (PPARα) [nM] | Kd (PPARδ) [nM]
CCCCOc1ccc(C(=O)N(C)Cc2cccc(-c3ccc(CCC(=O)O)cc3OCCCC)c2)cc1 [Example 13, 3-(2-butoxy-3′-{[(4-butoxybenzoyl)(methyl)amino]methyl}biphenyl-4-yl)propanoic acid] | 1 | – | –
CCCCCCCC(=O)N(C)Cc1cccc(-c2ccc(/C=C/C(=O)O)c(F)c2)c1 [Example 3, 3-{3-fluoro-3′-[((methyl)(octanoyl)amino)methyl]biphenyl-4-yl}acrylic acid] | 60 | – | –
CCCCCCCC(=O)NCc1cccc(-c2ccc(CCC(=O)O)cc2)c1 [Example 6, 3-[3′-((octanoylamino)methyl)biphenyl-4-yl]propanoic acid] | 4000 | – | –
CCCCCCCC(=O)N(C)Cc1cccc(-c2ccc(CCC(=O)O)cc2OCCCC)c1 [Example 8, 3-{2-butoxy-3′-[((methyl)(octanoyl)amino)methyl]biphenyl-4-yl}propanoic acid] | 1 | – | –
CCCCCCC(=O)N(C)Cc1cccc(-c2ccc(CCC(=O)O)cc2OCCCC)c1 [Example 11, 3-{2-butoxy-3′-[((heptanoyl)(methyl)amino)methyl]biphenyl-4-yl}propanoic acid] | 1 | 500 | 4000
CCCCCCCC(=O)N(C)Cc1cccc(-c2ccc(/C=C/C(=O)O)cc2)c1 [Example 1, 3-(3′-[((methyl)(octanoyl)amino)methyl]biphenyl-4-yl)acrylic acid] | 500 | – | –
CCCCOc1cc(CCC(=O)O)ccc1-c1cccc(CN(C)C(=O)CCCC)c1 [Example 10, 3-{2-butoxy-3′-[((methyl)(pentanoyl)amino)methyl]biphenyl-4-yl}propanoic acid] | 4 | – | 4000
CCCCCCCC(=O)N(C)Cc1cccc(-c2ccc(CCC(=O)O)c(F)c2)c1 [Example 4, 3-[3-fluoro-3′-[((methyl)(octanoyl)amino)methyl]biphenyl-4-yl)propanoic acid] | 250 | – | –
CCCCCCCC(=O)N(C)Cc1cccc(-c2ccc(CCC(=O)O)cc2)c1 [Example 2, 3-{3′-[((methyl)(octanoyl)amino)methyl]biphenyl-4-yl}propanoic acid] | 120 | – | –
CCCCCCCC(=O)N(C)Cc1cccc(-c2ccc(CCC(=O)O)c(O)c2)c1 [Example 7, 3-{3-hydroxy-3′-[((methyl)(octanoyl)amino)methyl]biphenyl-4-yl}propanoic acid] | 4000 | – | –
CCCCOc1cc(CCC(=O)O)ccc1-c1cccc(CN(C)C(=O)c2ccccc2)c1 [Example 14, 3-{3′-[((benzoyl)(methyl)amino)methyl]-2-butoxybiphenyl-4-yl}propanoic acid] | 8 | – | –
CCCCOc1cc(CCC(=O)O)ccc1-c1cccc(CN(C)C(=O)c2ccc(OC)cc2)c1 [Example 15, 3-(2-butoxy-3′-{[(4-methoxybenzoyl)(methyl)amino]methyl}biphenyl-4-yl)propanoic acid] | 0.5 | – | 4000
CCCCOc1cc(CCC(=O)O)ccc1-c1cccc(CN(C)C(=O)c2ccc(OCC)cc2)c1 [Example 12, 3-(2-butoxy-3′-{[(4-ethoxybenzoyl)(methyl)amino]methyl}biphenyl-4-yl)propanoic acid] | 0.25 | – | –
CCCCOc1cc(CCC(=O)O)ccc1-c1cccc(CN(C)C(=O)c2cccc(OC)c2)c1 [Example 16, 3-(2-butoxy-3′-{[(3-methoxybenzoyl)(methyl)amino]methyl}biphenyl-4-yl)propanoic acid] | 4 | – | 4000
CCCCCC(=O)N(C)Cc1cccc(-c2ccc(CCC(=O)O)cc2OCCCC)c1 [Example 9, 3-{2-butoxy-3′-[((hexanoyl)(methyl)amino)methyl]biphenyl-4-yl}propanoic acid] | 4 | 4000 | 4000
